Data as given in ChEMBL document CHEMBL1151023, “1,1-Dicyano-2-substituted ethylenes: A new class of glucose uptake inhibitors in antifilarial chemotherapy” (1997).

Columns and labels:
Type in all cases: functional
Acanthocheilonema viteae [1] = assay: Effect of compound on glucose uptake in Acanthocheilonema viteae at 10 uM concentration (p<0.05)
Acanthocheilonema viteae [2] = assay: Effect of compound on lactate produced in Acanthocheilonema viteae at 10 uM concentration (p>0.05)
Acanthocheilonema viteae [3] = assay: Effect of compound on ATP content in Acanthocheilonema viteae at 10 uM concentration (p>0.05)
Mastomys coucha [4] = assay: Tested for in vivo antifilarial activity against Acanthocheilonema viteae macrofilariae infection in Mastomys coucha at 50 mg/kgx 5 days after ip administration, expressed as % reduction in parasite load; conditions: dose 50 mg/kg; route intraperitoneal
Mastomys coucha [5] = assay: Tested for in vivo antifilarial activity against Acanthocheilonema viteae microfilariae infection in Mastomys coucha at 50 mg/kgx 5 days after ip administration, expressed as % reduction in parasite load; conditions: dose 50 mg/kg; route intraperitoneal
Acanthocheilonema viteae [6] = assay: Effect of compound on glucose uptake in Acanthocheilonema viteae at 10 uM concentration(p<0.005)
Acanthocheilonema viteae [7] = assay: Effect of compound on lactate produced in Acanthocheilonema viteae at 10 uM concentration(p<0.005)
Acanthocheilonema viteae [8] = assay: Effect of compound on ATP content in Acanthocheilonema viteae at 10 uM concentration (p<0.005)
Acanthocheilonema viteae [9] = assay: Effect of compound on glucose uptake in Acanthocheilonema viteae at 10 uM concentration (p<0.005)
Acanthocheilonema viteae [10] = assay: Effect of compound on lactate produced in Acanthocheilonema viteae at 10 uM concentration (p<0.005)
Mastomys coucha [11] = assay: Tested for in vivo antifilarial activity against Litomosoides carinii macrofilariae infection in Mastomys coucha at 30 mg/kgx 5 days after ip administration, expressed as % reduction in parasite load with 30% sterilization of female worms; conditions: dose 30 mg/kg; route intraperitoneal
Mastomys coucha [12] = assay: Tested for in vivo antifilarial activity against Litomosoides carinii microfilariae infection in Mastomys coucha at 30 mg/kgx 5 days after ip administration, expressed as % reduction in parasite load with 30% sterilization of female worms; conditions: dose 30 mg/kg; route intraperitoneal
Acanthocheilonema viteae [13] = assay: Effect of compound on lactate produced in Acanthocheilonema viteae at 10 uM concentration (p<0.05)
Acanthocheilonema viteae [14] = assay: Effect of compound on glucose uptake in Acanthocheilonema viteae at 10 uM concentration (p>0.05)
Mastomys coucha [15] = assay: Tested for in vivo antifilarial activity against A. viteae microfilariae infection in Mastomys coucha at 50 mg/kgx 5 days after ip administration, expressed as % reduction in parasite load; conditions: dose 50 mg/kg; route intraperitoneal
Acanthocheilonema viteae [16] = assay: Effect of compound on lactate produced in Acanthocheilonema viteae at 10 uM concentration(p>0.05)
Mastomys coucha [17] = assay: Tested for in vivo antifilarial activity against Litomosoides carinii macrofilariae infection in Mastomys coucha at 350 mg/kgx 5 days after ip administration, expressed as % reduction in parasite load; conditions: dose 350 mg/kg; route intraperitoneal
Mastomys coucha [18] = assay: Tested for in vivo antifilarial activity against Litomosoides carinii macrofilariae infection in Mastomys coucha at 6 mg/kgx 5 days after ip administration, expressed as % reduction in parasite load; conditions: dose 6 mg/kg; route intraperitoneal
Mastomys coucha [19] = assay: Tested for in vivo antifilarial activity against Litomosoides carinii microfilariae infection in Mastomys coucha at 350 mg/kgx 5 days after ip administration, expressed as % reduction in parasite load; conditions: dose 350 mg/kg; route intraperitoneal
Mastomys coucha [20] = assay: Tested for in vivo antifilarial activity against Litomosoides carinii microfilariae infection in Mastomys coucha at 6 mg/kgx 5 days after ip administration, expressed as % reduction in parasite load; conditions: dose 6 mg/kg; route intraperitoneal

| SMILES | Lactate produced (Acanthocheilonema viteae [2]) | ATP content (Acanthocheilonema viteae [3]) | Reduction (Mastomys coucha [4]) | Reduction (Mastomys coucha [5]) | ATP content (Acanthocheilonema viteae [8]) | Glucose uptake (Acanthocheilonema viteae [14]) | also measured |
| --- | --- | --- | --- | --- | --- | --- | --- |
| N#CC(C#N)=CNCCO | 343 nM/h (mg of worm) | 47.8 pM (mg of protein)-1 | 0% | 82% |  |  | Glucose uptake (Acanthocheilonema viteae [1]): 164 nM/h (mg of worm) |
| N#CC(C#N)=CNc1ccc(F)cc1 |  |  | 0% | 91% | 16.9 pM (mg of protein)-1 |  | Glucose uptake (Acanthocheilonema viteae [6]): 56 nM/h (mg of worm); Lactate produced (Acanthocheilonema viteae [7]): 222 nM/h (mg of worm) |
| N#CC(C#N)=CN1CCN(c2ccccn2)CC1 |  |  |  |  | 37.1 pM (mg of protein)-1 |  | Glucose uptake (Acanthocheilonema viteae [9]): 105 nM/h (mg of worm); Lactate produced (Acanthocheilonema viteae [10]): 157 nM/h (mg of worm); Reduction (Mastomys coucha [11]): 60%; Reduction (Mastomys coucha [12]): 60% |
| N#CC(C#N)=CN1CCN(C=C(C#N)C#N)CC1 |  |  | 81% | 0% | 25.7 pM (mg of protein)-1 |  | Glucose uptake (Acanthocheilonema viteae [1]): 327 nM/h (mg of worm); Lactate produced (Acanthocheilonema viteae [13]): 258 nM/h (mg of worm) |
| N#CC(C#N)=CN(CCO)CCO | 405 nM/h (mg of worm) | 49.3 pM (mg of protein)-1 | 0% | 76% |  | 204 nM/h (mg of worm) |  |
| N#CC(C#N)=CNc1ccccc1 | 443 nM/h (mg of worm) | 53.5 pM (mg of protein)-1 | 0% |  |  | 189 nM/h (mg of worm) | Reduction (Mastomys coucha [15]): 47% |
| CCN(CC)C(=O)N1CCN(C)CC1.O=C(O)CC(O)(CC(=O)O)C(=O)O [DIETHYLCARBAMAZINE CITRATE] |  | 55.6 pM (mg of protein)-1 |  |  |  | 256 nM/h (mg of worm) | Lactate produced (Acanthocheilonema viteae [16]): 461 nM/h (mg of worm); Reduction (Mastomys coucha [17]): 0%; Reduction (Mastomys coucha [18]): 0%; Reduction (Mastomys coucha [19]): 90%; Reduction (Mastomys coucha [20]): 98% |
